In ChEMBL document CHEMBL1145997, “Understanding the antitumor activity of novel hydroxysemicarbazide derivatives as ribonucleotide reductase inhibitors using CoMFA and CoMSIA” (J Med Chem, 2003):

System: L1210
Experiment: In vitro antitumor activity against L1210 cancer cell line
Assay type: functional, cell-based
Details: Mus musculus

IC50: 82 µM
Structure (SMILES): O=C(/N=C\NNC(=O)NO)NO
